According to ChEMBL document CHEMBL4680246, “Design, synthesis and biological evaluation of novel O-carbamoyl ferulamide derivatives as multi-target-directed ligands for the treatment of Alzheimer's disease” (Eur J Med Chem, 2020):
Calls of active or inactive are those of the source. The rule behind the calls is not given here.

How the values were obtained:
[1] = molecular target: T1, Cholinesterase (Homo sapiens, UniProt P06276); test: Inhibition of human serum BuChE using acetylcholine iodide as substrate incubated for 15 mins by Ellman's method
[2] = molecular target: Acetylcholinesterase (Homo sapiens, UniProt P22303); test: Inhibition of human erythrocytes AChE using acetylcholine iodide as substrate incubated for 15 mins by Ellman's method
[3] = molecular target: Cholinesterase (Equus caballus, UniProt P81908); test: Inhibition of equine serum BuChE using BTC as substrate after 15 mins by Ellman's method
[4] = molecular target: Acetylcholinesterase (Electrophorus electricus, UniProt O42275); test: Inhibition of Electrophorus electricus AChE using acetylcholine iodide as substrate incubated for 15 mins by Ellman's method
[5] = molecular target: T2, Amine oxidase [flavin-containing] A (Homo sapiens, UniProt P21397); test: Inhibition of recombinant human MAO-A
T2 sequence (P21397 whole entry): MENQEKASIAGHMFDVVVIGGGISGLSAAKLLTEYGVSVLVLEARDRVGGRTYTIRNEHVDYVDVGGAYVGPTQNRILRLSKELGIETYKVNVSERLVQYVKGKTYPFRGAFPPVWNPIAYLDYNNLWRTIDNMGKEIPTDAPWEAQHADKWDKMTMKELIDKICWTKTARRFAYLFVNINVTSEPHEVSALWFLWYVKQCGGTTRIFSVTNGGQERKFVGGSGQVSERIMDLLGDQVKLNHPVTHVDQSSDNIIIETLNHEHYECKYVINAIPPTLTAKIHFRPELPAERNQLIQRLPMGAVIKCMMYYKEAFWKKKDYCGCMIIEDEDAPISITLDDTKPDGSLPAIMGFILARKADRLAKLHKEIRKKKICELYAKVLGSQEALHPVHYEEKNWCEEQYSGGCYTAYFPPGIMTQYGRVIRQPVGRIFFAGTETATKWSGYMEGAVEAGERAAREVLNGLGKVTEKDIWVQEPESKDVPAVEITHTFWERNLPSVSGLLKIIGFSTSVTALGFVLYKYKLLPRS

[6] = species: Homo sapiens; test: Selectivity index, ratio of IC50 for recombinant human MAO-A to IC50 for recombinant human MAO-B
[7] = molecular target: T3, Amine oxidase [flavin-containing] B (Homo sapiens, UniProt P27338); test: Inhibition of recombinant human MAO-B
T3 sequence (P27338 whole entry): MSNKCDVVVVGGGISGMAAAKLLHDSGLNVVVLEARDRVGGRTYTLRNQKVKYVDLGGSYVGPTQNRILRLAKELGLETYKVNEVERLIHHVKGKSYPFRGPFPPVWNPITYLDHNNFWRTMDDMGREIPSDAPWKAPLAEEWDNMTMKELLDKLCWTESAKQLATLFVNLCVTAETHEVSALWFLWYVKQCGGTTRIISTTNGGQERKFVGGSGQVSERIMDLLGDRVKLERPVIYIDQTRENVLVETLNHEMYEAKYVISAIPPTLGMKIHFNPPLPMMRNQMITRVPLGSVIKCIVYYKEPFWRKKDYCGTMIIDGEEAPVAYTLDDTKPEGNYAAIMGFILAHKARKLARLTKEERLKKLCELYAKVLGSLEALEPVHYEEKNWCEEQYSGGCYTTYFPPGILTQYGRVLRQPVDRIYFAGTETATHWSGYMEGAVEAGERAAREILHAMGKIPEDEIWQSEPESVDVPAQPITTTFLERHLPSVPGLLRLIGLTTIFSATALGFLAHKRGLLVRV

[8] = species: Homo sapiens; test: Selectivity index, ratio of IC50 for human erythrocytes Ache to IC50 for human serum BuChe
[9] = Selectivity index, ratio of IC50 for Electrophorus electricus AChE to IC50 for equine serum BuChE
[10] = system: Mus musculus; test: Improvement in cognitive impairment in scopolamine-induced mouse model of amnesia assessed as increase in spontaneous alteration at 10 mg/kg by Y-maze test; assay type: functional, organism-based
[11] = molecular target: Amyloid-beta precursor protein (Homo sapiens) (UniProt P05067); test: Inhibition of self-induced Amyloid beta (1 to 42 residues) (unknown origin) aggregation at 25 uM measured after 24 hrs by thioflavin T-based fluorimetric assay relative to control
[12] = molecular target: Cholinesterase (Equus caballus) (UniProt P81908); test: Inhibition of equine serum BuChE at 25 uM using BTC as substrate after 15 mins by Ellman's method relative to control
[13] = molecular target: T1, Cholinesterase; test: Inhibition of human serum BuChE assessed as residual activity at 0.1 times IC50 using acetylcholine iodide as substrate measured after dilution by Ellman's method relative to control
[14] = species: Danio rerio; test: Antialzheimer activity in AlCl3-induced Zebrafish model of Alzheimer's disease assessed as motility distance at 8 uM (reference value: 5346 mm); assay type: functional
[15] = species: Danio rerio; test: Antialzheimer activity in AlCl3-induced Zebrafish model of Alzheimer's disease assessed as increase in motility distance at 8 uM relative to control; assay type: functional
[16] = species: Danio rerio; test: Antialzheimer activity in AlCl3-induced Zebrafish model of Alzheimer's disease assessed as change in motility speed at 8 uM (reference value: 1.08 mm/s); assay type: functional
[17] = species: Danio rerio; test: Antialzheimer activity in AlCl3-induced Zebrafish model of Alzheimer's disease assessed as increase in motility speed at 8 uM relative to control; assay type: functional

Sequence of Acetylcholinesterase (Homo sapiens, UniProt P22303) (P22303 whole entry): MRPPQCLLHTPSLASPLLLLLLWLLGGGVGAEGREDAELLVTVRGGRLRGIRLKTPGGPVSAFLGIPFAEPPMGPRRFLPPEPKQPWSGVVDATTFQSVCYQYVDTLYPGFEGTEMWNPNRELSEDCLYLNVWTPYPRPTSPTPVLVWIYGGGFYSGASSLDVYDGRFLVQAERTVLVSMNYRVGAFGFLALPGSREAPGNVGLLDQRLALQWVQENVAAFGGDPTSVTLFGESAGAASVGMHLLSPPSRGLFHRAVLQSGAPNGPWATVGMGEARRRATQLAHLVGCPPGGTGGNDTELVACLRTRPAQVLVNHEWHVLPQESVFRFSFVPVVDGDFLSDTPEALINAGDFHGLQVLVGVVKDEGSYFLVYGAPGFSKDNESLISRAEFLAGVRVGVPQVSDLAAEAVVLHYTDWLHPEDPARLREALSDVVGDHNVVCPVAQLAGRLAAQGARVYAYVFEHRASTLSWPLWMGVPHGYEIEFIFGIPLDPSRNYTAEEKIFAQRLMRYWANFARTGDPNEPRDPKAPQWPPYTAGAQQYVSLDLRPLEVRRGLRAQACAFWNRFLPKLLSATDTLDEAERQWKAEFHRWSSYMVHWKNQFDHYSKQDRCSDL
Sequence of Amyloid-beta precursor protein (Homo sapiens) (P05067 whole entry, the tested form may be a part): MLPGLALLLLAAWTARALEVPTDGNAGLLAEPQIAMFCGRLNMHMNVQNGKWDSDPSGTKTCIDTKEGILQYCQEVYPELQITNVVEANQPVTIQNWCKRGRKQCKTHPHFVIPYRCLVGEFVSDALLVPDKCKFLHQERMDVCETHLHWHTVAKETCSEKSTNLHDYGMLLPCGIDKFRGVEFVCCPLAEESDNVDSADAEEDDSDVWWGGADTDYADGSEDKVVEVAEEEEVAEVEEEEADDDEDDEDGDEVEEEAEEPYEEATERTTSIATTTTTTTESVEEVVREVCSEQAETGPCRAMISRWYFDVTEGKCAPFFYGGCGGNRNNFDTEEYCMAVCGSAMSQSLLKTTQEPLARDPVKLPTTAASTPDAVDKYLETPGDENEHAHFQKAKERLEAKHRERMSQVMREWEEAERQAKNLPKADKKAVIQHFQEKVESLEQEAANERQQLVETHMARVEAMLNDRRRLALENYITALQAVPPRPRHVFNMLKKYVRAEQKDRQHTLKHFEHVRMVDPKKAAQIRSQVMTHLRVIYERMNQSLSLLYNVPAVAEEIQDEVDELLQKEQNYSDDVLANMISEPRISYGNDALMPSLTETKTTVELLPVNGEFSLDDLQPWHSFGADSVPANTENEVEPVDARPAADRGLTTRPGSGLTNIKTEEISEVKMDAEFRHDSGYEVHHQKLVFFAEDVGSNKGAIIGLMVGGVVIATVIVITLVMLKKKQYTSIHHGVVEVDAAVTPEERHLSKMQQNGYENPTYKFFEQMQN
Sequence of Cholinesterase (Equus caballus) (P81908 whole entry): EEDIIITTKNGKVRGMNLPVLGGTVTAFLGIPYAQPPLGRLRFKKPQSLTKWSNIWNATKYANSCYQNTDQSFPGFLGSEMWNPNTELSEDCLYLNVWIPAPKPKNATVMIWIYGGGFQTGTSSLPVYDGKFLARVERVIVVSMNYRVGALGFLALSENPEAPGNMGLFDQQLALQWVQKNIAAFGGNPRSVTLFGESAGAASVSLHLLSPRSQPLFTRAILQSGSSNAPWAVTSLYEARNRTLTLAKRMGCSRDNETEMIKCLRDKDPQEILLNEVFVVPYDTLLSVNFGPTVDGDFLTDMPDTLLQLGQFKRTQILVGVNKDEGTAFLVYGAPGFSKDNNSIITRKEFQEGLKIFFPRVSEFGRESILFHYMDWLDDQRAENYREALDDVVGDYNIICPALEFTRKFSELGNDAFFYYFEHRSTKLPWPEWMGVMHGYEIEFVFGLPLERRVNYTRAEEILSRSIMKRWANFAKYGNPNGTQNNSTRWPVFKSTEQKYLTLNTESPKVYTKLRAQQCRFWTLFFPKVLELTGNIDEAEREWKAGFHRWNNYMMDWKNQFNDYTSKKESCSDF
Sequence of Cholinesterase (Equus caballus, UniProt P81908) (P81908 whole entry): as above
Sequence of Acetylcholinesterase (Electrophorus electricus, UniProt O42275) (O42275 whole entry): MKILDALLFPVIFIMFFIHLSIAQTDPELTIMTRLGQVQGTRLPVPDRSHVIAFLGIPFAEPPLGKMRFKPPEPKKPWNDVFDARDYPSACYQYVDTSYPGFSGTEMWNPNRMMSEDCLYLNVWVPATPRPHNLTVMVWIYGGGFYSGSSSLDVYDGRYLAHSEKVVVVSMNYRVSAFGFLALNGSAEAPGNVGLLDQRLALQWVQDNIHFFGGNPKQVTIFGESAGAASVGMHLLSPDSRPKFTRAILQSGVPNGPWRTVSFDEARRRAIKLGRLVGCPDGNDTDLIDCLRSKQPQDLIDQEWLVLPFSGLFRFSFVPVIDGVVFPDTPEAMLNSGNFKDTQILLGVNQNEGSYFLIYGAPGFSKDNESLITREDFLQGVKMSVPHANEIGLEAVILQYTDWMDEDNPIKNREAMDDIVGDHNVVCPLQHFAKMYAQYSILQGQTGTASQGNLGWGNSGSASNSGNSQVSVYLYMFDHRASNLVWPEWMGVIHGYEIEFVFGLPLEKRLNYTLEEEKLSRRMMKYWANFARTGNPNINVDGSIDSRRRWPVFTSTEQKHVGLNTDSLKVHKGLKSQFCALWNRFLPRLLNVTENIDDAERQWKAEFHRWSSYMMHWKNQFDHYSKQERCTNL
T1 sequence (P06276 whole entry): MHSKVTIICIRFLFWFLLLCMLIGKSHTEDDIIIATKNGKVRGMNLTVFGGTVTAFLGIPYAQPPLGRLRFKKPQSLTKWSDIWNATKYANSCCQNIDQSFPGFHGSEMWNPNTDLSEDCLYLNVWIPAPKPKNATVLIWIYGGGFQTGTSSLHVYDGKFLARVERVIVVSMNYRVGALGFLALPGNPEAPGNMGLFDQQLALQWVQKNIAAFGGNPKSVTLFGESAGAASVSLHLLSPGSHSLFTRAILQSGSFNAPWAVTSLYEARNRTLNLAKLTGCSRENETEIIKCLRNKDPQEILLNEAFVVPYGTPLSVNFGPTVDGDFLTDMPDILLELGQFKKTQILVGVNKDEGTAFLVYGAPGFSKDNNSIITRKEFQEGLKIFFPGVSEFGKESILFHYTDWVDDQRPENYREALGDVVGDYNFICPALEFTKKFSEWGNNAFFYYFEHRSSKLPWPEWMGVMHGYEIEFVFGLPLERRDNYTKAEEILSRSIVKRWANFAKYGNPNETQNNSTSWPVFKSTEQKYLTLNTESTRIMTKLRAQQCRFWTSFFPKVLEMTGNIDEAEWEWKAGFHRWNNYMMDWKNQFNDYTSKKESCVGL

COc1cc(/C=C/C(=O)O)ccc1O [FERULATE]
IC50 [1]: > 100 µM
IC50 [2]: > 100 µM
IC50 [3]: > 100 µM
IC50 [4]: > 100 µM

COc1cc(/C=C/C(=O)N2CCc3ccccc3C2)ccc1OC(=O)N(C)C
IC50 [5]: 35.7 µM
Ratio IC50 [6]: 3.6
IC50 [7]: 9.8 µM
Ratio IC50 [8]: 1.9
IC50 [1]: 9.5 µM
IC50 [2]: 17.9 µM
IC50 [3]: 3.7 µM
Ratio IC50 [9]: 7.2
IC50 [4]: 26.8 µM

CC(=O)OCC[N+](C)(C)C
Activity [10]: inactive

COc1cc(/C=C/C(=O)N2CCC(Cc3ccccc3)CC2)ccc1OC(=O)N(C)C
inhibition [11]: 56.6%
IC50 [5]: 16.3 µM
Ratio IC50 [6]: 1.8
IC50 [7]: 8.9 µM
Ratio IC50 [8]: 2.2
IC50 [1]: 7.6 µM
IC50 [2]: 16.6 µM
IC50 [3]: 1.3 µM
Ratio IC50 [9]: 14.5
IC50 [4]: 18.9 µM

CCN(C)C(=O)Oc1ccc(/C=C/C(=O)N2CCC(Cc3ccccc3)CC2)cc1
inhibition [11]: 48.1%
IC50 [5]: 56.8 µM
Ratio IC50 [6]: 7.3
IC50 [7]: 7.8 µM
Ratio IC50 [8]: 4.8
IC50 [1]: 5.6 µM
IC50 [2]: 27.1 µM
IC50 [3]: 5.3 µM
Ratio IC50 [9]: 4.2
IC50 [4]: 22.1 µM

CCN(C)C(=O)Oc1ccc(/C=C/C(=O)N2CCN(Cc3ccccc3)CC2)cc1
IC50 [5]: 9.8 µM
Ratio IC50 [6]: 0.5
IC50 [7]: 21.3 µM
Ratio IC50 [8]: 0.5
IC50 [1]: 29.7 µM
IC50 [2]: 14.8 µM
IC50 [3]: 20.3 µM
Ratio IC50 [9]: 1.3
IC50 [4]: 25.6 µM

CCN(C)C(=O)Oc1ccc(/C=C/C(=O)N(CC)Cc2ccccc2)cc1OC
inhibition [11]: 50.7%
IC50 [5]: 14.1 µM
Ratio IC50 [6]: 1.5
IC50 [7]: 9.5 µM
Ratio IC50 [8]: 5.4
IC50 [1]: 3.8 µM
IC50 [2]: 20.7 µM
IC50 [3]: 1.5 µM
Ratio IC50 [9]: 13
IC50 [4]: 19.5 µM

CCN(CC)C(=O)Oc1ccc(/C=C/C(=O)N2CCN(Cc3ccccc3)CC2)cc1OC
IC50 [5]: 19.7 µM
Ratio IC50 [6]: 0.8
IC50 [7]: 23.2 µM
Ratio IC50 [8]: 1.6
IC50 [1]: 10.6 µM
IC50 [2]: 16.8 µM
IC50 [3]: 8.7 µM
Ratio IC50 [9]: 2.2
IC50 [4]: 19.2 µM

COc1cc(/C=C/C(=O)N2CCN(Cc3ccccc3)CC2)ccc1OC(=O)N(c1ccccc1)c1ccccc1
IC50 [5]: 14.7 µM
Ratio IC50 [6]: 0.5
IC50 [7]: 31.8 µM
inhibition [12]: 9.7%
Ratio IC50 [8]: 1.3
IC50 [1]: 22.3 µM
IC50 [2]: 28.7 µM
IC50 [3]: > 100 µM
IC50 [4]: 89.8 µM

CCN(CC)C(=O)/C=C/c1ccc(OC(=O)N(C)C)c(OC)c1
IC50 [5]: 30.9 µM
Ratio IC50 [6]: 0.97
IC50 [7]: 31.8 µM
Ratio IC50 [8]: 0.86
IC50 [1]: 15.2 µM
IC50 [2]: 13.1 µM
IC50 [3]: 19.2 µM
Ratio IC50 [9]: 0.93
IC50 [4]: 17.8 µM

CCN(CC)C(=O)Oc1ccc(/C=C/C(=O)N2CCc3ccccc3C2)cc1OC
IC50 [5]: 8 µM
Ratio IC50 [6]: 1.2
IC50 [7]: 6.6 µM
Ratio IC50 [8]: 2
IC50 [1]: 7.7 µM
IC50 [2]: 15.7 µM
IC50 [3]: 2 µM
Ratio IC50 [9]: 6.8
IC50 [4]: 13.6 µM

COc1cc(/C=C/C(=O)N2CCc3ccccc3C2)ccc1OC(=O)N(C)OC
IC50 [5]: 22.2 µM
Ratio IC50 [6]: 3.3
IC50 [7]: 6.8 µM
Ratio IC50 [8]: 0.76
IC50 [1]: 16.2 µM
IC50 [2]: 12.3 µM
IC50 [3]: 29.2 µM
Ratio IC50 [9]: 0.4
IC50 [4]: 11.8 µM

COc1cc(/C=C/C(=O)N2CCN(Cc3ccccc3)CC2)ccc1OC(=O)N(C)C
IC50 [5]: 39.1 µM
Ratio IC50 [6]: 2.3
IC50 [7]: 16.7 µM
Ratio IC50 [8]: 1.7
IC50 [1]: 14.2 µM
IC50 [2]: 23.5 µM
IC50 [3]: 12.1 µM
Ratio IC50 [9]: 1.9
IC50 [4]: 22.7 µM

COc1cc(/C=C/C(=O)N2CCC(Cc3ccccc3)CC2)ccc1OC(=O)N(c1ccccc1)c1ccccc1
IC50 [5]: 34.6 µM
Ratio IC50 [6]: 2.6
IC50 [7]: 13.3 µM
inhibition [12]: 6.6%
Ratio IC50 [8]: 0.9
IC50 [1]: 36.7 µM
IC50 [2]: 32.1 µM
IC50 [3]: > 100 µM
IC50 [4]: 88.3 µM

COc1cc(/C=C/C(=O)N2CCCCC2)ccc1OC(=O)N(c1ccccc1)c1ccccc1
IC50 [5]: 46.2 µM
Ratio IC50 [6]: 2.1
IC50 [7]: 21.8 µM
inhibition [12]: 20%
Ratio IC50 [8]: 1.2
IC50 [1]: 22.9 µM
IC50 [2]: 27.2 µM
IC50 [3]: 98.5 µM
IC50 [4]: 21.8 µM

CCN(C)C(=O)Oc1ccc(/C=C/C(=O)N2CCCCC2)cc1OC
IC50 [5]: 29.6 µM
Ratio IC50 [6]: 1.8
IC50 [7]: 16.3 µM
Ratio IC50 [8]: 0.85
IC50 [1]: 12.6 µM
IC50 [2]: 10.7 µM
IC50 [3]: 19.6 µM
Ratio IC50 [9]: 0.78
IC50 [4]: 15.3 µM

CCN(C)C(=O)Oc1ccc(/C=C/C(=O)N2CCC(Cc3ccccc3)CC2)cc1OC
inhibition [11]: 53.7%
IC50 [5]: 7.9 µM
Ratio IC50 [6]: 1.1
IC50 [7]: 7.52 µM
Ratio IC50 [8]: 2.7
IC50 [1]: 6.5 µM
IC50 [2]: 17.3 µM
IC50 [3]: 3.9 µM
Ratio IC50 [9]: 3.9
IC50 [4]: 15.1 µM

CCN(Cc1ccccc1)C(=O)/C=C/c1ccc(OC(=O)N(c2ccccc2)c2ccccc2)c(OC)c1
IC50 [5]: 24.6 µM
Ratio IC50 [6]: 1.5
IC50 [7]: 15.9 µM
Ratio IC50 [8]: 1.1
IC50 [1]: 25.3 µM
IC50 [2]: 28.1 µM
IC50 [3]: 24.6 µM
Ratio IC50 [9]: 0.77
IC50 [4]: 18.9 µM

CCN(C)C(=O)Oc1ccc(/C=C/C(=O)N2CCc3ccccc3C2)cc1
inhibition [11]: 52.9%
IC50 [5]: 97.3 µM
Ratio IC50 [6]: 11.7
IC50 [7]: 8.3 µM
Ratio IC50 [8]: 1.8
IC50 [1]: 3.7 µM
IC50 [2]: 6.8 µM
IC50 [3]: 3.8 µM
Ratio IC50 [9]: 4.7
IC50 [4]: 17.7 µM

COc1cc(/C=C/C(=O)N2CCCCC2)ccc1OC(=O)N(C)C
IC50 [5]: 33.3 µM
Ratio IC50 [6]: 1
IC50 [7]: 32.5 µM
Ratio IC50 [8]: 0.69
IC50 [1]: 13.1 µM
IC50 [2]: 9.1 µM
IC50 [3]: 26.3 µM
Ratio IC50 [9]: 0.67
IC50 [4]: 17.5 µM

COc1cc2c(cc1OC)C(=O)C(CC1CCN(Cc3ccccc3)CC1)C2 (stereo not given) [DONEPEZIL]
Activity [13]: 63.2%
Activity [14]: 6477 mm
Efficacy [15]: 57.9%
Activity [16]: <=1.88 millimeter/sec
Efficacy [17]: 64.5%

COc1cc(/C=C/C(=O)N2CCc3ccccc3C2)ccc1OC(=O)N(c1ccccc1)c1ccccc1
IC50 [5]: 16.9 µM
Ratio IC50 [6]: 1.4
IC50 [7]: 12.2 µM
Ratio IC50 [8]: 1.2
IC50 [1]: 25.8 µM
IC50 [2]: 30.5 µM
IC50 [3]: 23.9 µM
IC50 [4]: 93.2 µM

CCN(CC)C(=O)Oc1ccc(/C=C/C(=O)N2CCC(Cc3ccccc3)CC2)cc1OC
inhibition [11]: 49.7%
IC50 [5]: 7.8 µM
Ratio IC50 [6]: 1.5
IC50 [7]: 5.13 µM
Ratio IC50 [8]: 3.9
IC50 [1]: 5.1 µM
IC50 [2]: 19.7 µM
IC50 [3]: 2.8 µM
Ratio IC50 [9]: 9.1
IC50 [4]: 25.6 µM
